Data as given in ChEMBL document CHEMBL5154681, “Small Amphiphilic Peptides: Activity Against a Broad Range of Drug-Resistant Bacteria and Structural Insight into Membranolytic Properties” (J Med Chem, 2022).
Converted amounts (≈) assume the structure as drawn. The source made the active and inactive calls. The calls are words filed in the database; no cut-off is given here. Square brackets hold non-standard residues; d marks the D form. Peptide text beside a SMILES is read from it. Dip = N[C@H](C(=O)O)C(c1ccccc1)c1ccccc1; 2Nal = N[C@@H](Cc1ccc2ccccc2c1)C(=O)O

Tests used:
[1] = test system: Staphylococcus aureus; assay: Antibacterial activity against methicillin-resistant Staphylococcus aureus ATCC BAA-1556 assessed as loss of membrane fluid at 4 times of MIC incubated for 30 mins by FE-SEM analysis; type: functional, organism-based
[2] = test system: Staphylococcus aureus; assay: Bactericidal activity against methicillin resistant Staphylococcus aureus ATCC BAA-1556 assessed as time required for complete reduction of bacterial growth at 4 times MIC by counting formed colonies; type: functional
[3] = test system: Pseudomonas aeruginosa; assay: Antibacterial activity against imipenem resistant Pseudomonas aeruginosa ATCC BAA-1744 incubated for 24 hrs by microtiter plate method; type: functional
[4] = test system: HepaRG; assay: Cytotoxicity against human HPRGC10 assessed as cell viability at 50 ug/ml incubated for 24 hrs by microplate spectrophotometer analysis method relative to control; type: functional; details: read-out: Activity
[5] = test system: Staphylococcus aureus; assay: Antibacterial activity against methicillin-resistant Staphylococcus aureus ATCC BAA-1556 assessed as membrane atrophy at 4 times of MIC incubated for 30 mins by FE-SEM analysis; type: functional, organism-based
[6] = Selectivity ratio of MIC for antibacterial activity against Klebsiella pneumoniae ATCC 13883 to MIC for antibacterial activity against carbapenem-resistant Klebsiella pneumoniae ATCC BAA-2470; type: functional
[7] = test system: Lipid bilayer; assay: Membrano-lytic effect in bacterial inner membrane mimic DOPC/DOPG (7:3) large unilamellar vesicles assessed as calcein leakage measured at 5 microg/ml, incubated for 30 mins by multimode microplate reader assay; type: cell membranes; details: dose 5.0 µg/ml
[8] = Cytotoxicity against HEK293 assessed as cell viability at 150 ug/ml incubated for 24 hrs by microplate spectrophotometer analysis method relative to control; type: toxicity, cell-based; details: human, HEK293 cells, at 150 µg/mL, read-out: Activity
[9] = test system: Enterococcus faecalis; assay: Antibacterial activity against vancomycin-resistant Enterococcus faecalis ATCC 51575 incubated for 24 hrs by microtiter plate method; type: functional
[10] = test system: Acinetobacter baumannii; assay: Antibacterial activity against ciprofloxacin resistance Acinetobacter baumannii ATCC BAA1605 incubated for 24 hrs by microtiter plate method; type: functional
[11] = test system: Lipid bilayer; assay: Membrano-lytic effect in bacterial inner membrane mimic DOPC/DOPG (7:3) large unilamellar vesicles assessed as calcein leakage measured at 50 microg/ml, incubated for 40 mins by multimode microplate reader assay; type: cell membranes; details: dose 50.0 µg/ml
[12] = Hemolytic activity in human RBC assessed as hemolysis incubated for 2 hrs by spectrophotometer analysis; type: toxicity, cell-based, Erythrocyte; details: human red blood cells (erythrocytes)
[13] = test system: Staphylococcus aureus; assay: Antibacterial activity against methicillin resistant Staphylococcus aureus ATCC BAA-1556 after 24 hrs in presence of 6 mM of NH4Cl by microtiter plate method; type: functional
[14] = test system: Lipid bilayer; assay: Membrano-lytic effect in bacterial inner membrane mimic DOPC/DOPG (7:3) large unilamellar vesicles assessed as calcein leakage measured upto 100 mins for every 10 mins by multimode microplate reader assay; type: cell membranes; details: dose 5-50 µg/ml, DDE = dose-dependent effect
[15] = test system: Streptococcus pneumoniae; assay: Antibacterial activity against […] ATCC 49619 incubated for 24 hrs by microtiter plate method; type: functional
[16] = test system: Enterococcus faecalis; assay: Antibacterial activity against Enterococcus faecalis ATCC 29212 incubated for 24 hrs by microtiter plate method; type: functional
[17] = test system: Cell membrane; assay: Membrano-lytic effect in cytoplasmic membrane of Escherichia coli ATCC BAA-2452 assessed as disruption by measuring propidium iodide fluorescence at 4 times MIC incubated for 1 hr by FACscan flow cytometer analysis
[18] = test system: Cell membrane; assay: Membrano-lytic effect in cytoplasmic membrane of Escherichia coli ATCC BAA-2452 assessed as disruption by measuring propidium iodide fluorescence at MIC incubated for 1 hr by FACscan flow cytometer analysis
[19] = test system: Escherichia coli; assay: Antibacterial activity against Escherichia coli ATCC 25922 assessed as reduction in microbial growth after 24 hrs in presence of 6 mM of NH4Cl at by microtiter plate method; type: functional
[20] = test system: Enterococcus faecalis; assay: Potency index, ratio of daptomycin MIC to test compound MIC for antibacterial activity against vancomycin resistant Enterococcus faecalis ATCC 51575; type: functional
[21] = test system: Klebsiella pneumoniae; assay: Antibacterial activity against Klebsiella pneumoniae ATCC 13883 […] incubated for 24 hrs by microtiter plate method; type: functional
[22] = test system: HepaRG; assay: Cytotoxicity against human HPRGC10 assessed as cell viability at 150 ug/ml incubated for 24 hrs by microplate spectrophotometer analysis method relative to control; type: functional; details: read-out: Activity
[23] = Proteolytic stability in human plasma at 100 uM incubated for 30 mins by Q-TOF LC/MS analysis relative to control; type: ADME, cell-free; details: read-out: Stability
[24] = test system: Bacillus cereus; assay: Antibacterial activity against Bacillus cereus ATCC 13061 incubated for 24 hrs by microtiter plate method; type: functional
[25] = test system: Lipid bilayer; assay: Membrano-lytic effect in bacterial inner membrane mimic DOPC/DOPG (7:3) large unilamellar vesicles assessed as calcein leakage measured at 50 microg/ml, incubated for 50 mins by multimode microplate reader assay; type: cell membranes; details: dose 50.0 µg/ml

SMILES	Activity [1]	Activity [2]	MIC [3]	viability at 50 µg/mL [4]	Activity [5]	Ratio [6]	Activity [7]	viability at 24 h, 150 ug/ml [8]	MIC [9]	MIC [10]	HC50 at 2 h [12]	MIC [13]	Activity [14]	MIC [15]	MIC [16]	Activity [17]	Activity [18]	MIC [19]	Ratio [20]	MIC [21]	other results
N=C(N)NCCC[C@@H]1NC(=O)[C@H](CCCNC(=N)N)NC(=O)[C@H](CCCNC(=N)N)NC(=O)[C@H](Cc2ccc3ccccc3c2)NC(=O)[C@H](Cc2ccc3ccccc3c2)NC(=O)[C@H](Cc2ccc3ccccc3c2)NC(=O)[C@H](CCCNC(=N)N)NC1=O (cyclo(RRRR[2Nal][2Nal][2Nal]))	Active	Active	12.5 µg/mL (≈ 10.3 µM)	93%	Active	2	30%	58%	3.1 µg/mL (≈ 2.55 µM)	12.5 µg/mL (≈ 10.3 µM)	80 µg/mL	3.1 µg/mL	Dde	25 µg/mL (≈ 20.6 µM)	3.1 µg/mL (≈ 2.55 µM)	88%	50%	25 µg/mL	2	50 µg/mL (≈ 41.1 µM)	Activity [11]: 100%; viability at 150 µg/mL [22]: 61%; remaining at 0.5 h, 100 µM [23]: 82%; MIC [24]: 3.1 µg/mL (≈ 2.55 µM)
N=C(N)NCCC[C@@H]1NC(=O)[C@H](CCCNC(=N)N)NC(=O)[C@H](CCCNC(=N)N)NC(=O)[C@H](C(c2ccccc2)c2ccccc2)NC(=O)[C@H](C(c2ccccc2)c2ccccc2)NC(=O)[C@H](C(c2ccccc2)c2ccccc2)NC(=O)[C@H](CCCNC(=N)N)NC1=O (cyclo(RRRR[Dip][Dip][Dip]))	Active	Active	12.5 µg/mL (≈ 9.66 µM)	93%	Active	2	30%	58%	6.2 µg/mL (≈ 4.79 µM)	12.5 µg/mL (≈ 9.66 µM)	70 µg/mL	3.1 µg/mL	Dde	25 µg/mL (≈ 19.3 µM)	3.1 µg/mL (≈ 2.39 µM)	78%	50%	12.5 µg/mL	2	50 µg/mL (≈ 38.6 µM)	Activity [25]: 100%; viability at 150 µg/mL [22]: 61%; remaining at 0.5 h, 100 µM [23]: 86%; MIC [24]: 3.1 µg/mL (≈ 2.39 µM)
